Here are results for 77 molecules from patent US7999137B2, “Pesticide bi-phenyl-amidine derivatives” (Bayer Cropscience AG, priority 2006, dated 2011).

A short description of the first data set: logP by HPLC on reversed-phase column (C 18), EEC Directive 79/831 Annex V.A8. The data set is classed as physicochemical. The note with it: HPLC reversed-phase C 18; 40° C.; 0.1% aqueous formic acid and acetonitrile, linear gradient 10% to 90% acetonitrile. As for the experimental part: Temperature: 40° C.; Mobile phases: 0.1% aqueous formic acid and acetonitrile; linear gradient from 10% acetonitrile to 90% acetonitrile.
Calibration was carried out using unbranched alkan-2-ones (comprising 3 to 16 carbon atoms) with known logP values (determination of the logP values by the retention times using linear interpolation between two successive alkanones).
As for `CCN(C)C=Nc1ccc(-c2ccc(C(C)(C)C)cc2)cc1Cl` [Compound 1], the “log p (HCOOH)” value is 2.44.
The same measure, in the same setting: then `CCN(C)C=Nc1ccc(-c2ccc(C(C)(C)C)cc2)cc1C(F)(F)F` [Compound 2], with 2.83.
The same measure, in the same setting: then `CCN(C)C=Nc1ccc(-c2ccc(F)c(Cl)c2)cc1Cl` [Compound 3], with 1.92.
Turning to `CCN(C)C=Nc1ccc(-c2ccc(F)c(Cl)c2)cc1C(F)(F)F` [Compound 4], the “log p (HCOOH)” value is 2.36.
Same read-out and setting: with `CCN(C)C=Nc1ccc(-c2ccc(F)c(Cl)c2)cc1C` [Compound 5] the figure was 2.00.
On to `CCN(C)C=Nc1ccc(-c2ccc(C(C)(C)C)cc2)cc1F` [Compound 6], for which the “log p (HCOOH)” value is reported as 2.29.
The same measure, in the same setting: with `CCc1cc(-c2ccc(C(C)(C)C)cc2)ccc1N=CN(C)CC` [Compound 7] the figure was 2.66.
Still for that read-out and setting: with `CCc1cc(-c2ccc(F)c(Cl)c2)ccc1N=CN(C)CC` [Compound 10] the figure was 2.17.
Same read-out and setting: with `CCN(C)C=Nc1ccc(-c2ccc(OC)c(OC)c2OC)cc1C(F)(F)F` [Compound 11] the figure was 1.84.
As for `CCN(C)C=Nc1ccc(-c2ccc(OC)c(OC)c2OC)cc1F` [Compound 12], the “log p (HCOOH)” value stood at 1.50.
Same read-out and setting: then `CCN(C)C=Nc1ccc(-c2ccc(F)cc2)cc1Cl` [Compound 13], with 1.69; and `CCN(C)C=Nc1ccc(-c2ccc(F)cc2)cc1C(F)(F)F` [Compound 14], with 1.93.
Turning to `CCN(C)C=Nc1ccc(-c2ccc(F)cc2)cc1F` [Compound 15], the “log p (HCOOH)” value stood at 1.50.
On the same count and under the same terms, then `CCN(C)C=Nc1ccc(-c2ccc(Cl)c(C(F)(F)F)c2)cc1C` [Compound 16], with 2.28; and `CCN(C)C=Nc1cc(C)c(-c2ccc(Cl)c(C(F)(F)F)c2)cc1C` [Compound 17], with 2.40.
In the case of `CCN(C)C=Nc1ccc(-c2ccc(Cl)c(C(F)(F)F)c2)cc1F` [Compound 20], the “log p (HCOOH)” value is listed as 2.15.
For `CCc1cc(-c2ccc(Cl)c(C(F)(F)F)c2)ccc1N=CN(C)CC` [Compound 21], the “log p (HCOOH)” value stood at 2.39.
Same read-out and setting: then `CCN(C)C=Nc1cc(C)c(-c2ccc(F)cc2)cc1C` [Compound 22], with 1.95.
With `CCc1cc(-c2ccc(F)cc2)ccc1N=CN(C)CC` [Compound 23], the “log p (HCOOH)” value came out at 1.79.
The same measure, in the same setting: then `CCN(C)C=Nc1ccc(-c2ccc(C(F)(F)F)cc2)cc1Cl` [Compound 24], with 1.99; and `CCN(C)C=Nc1ccc(-c2ccc(C(F)(F)F)cc2)cc1C(F)(F)F` [Compound 25], with 2.54.
Same read-out and setting: then `CCc1cc(-c2ccc(C(F)(F)F)cc2)ccc1N=CN(C)CC` [Compound 27], with 2.20; and `CCN(C)C(S)=Nc1cc(C)c(-c2ccc(C(C)(C)C)cc2)cc1C` [Compound 28], with 4.58; and `CCN(C)C=Nc1ccc(-c2cc(OC)c(OC)c(OC)c2)cc1C` [Compound 29], with 1.56.
On the same count and under the same terms, then `CCN(C)C=Nc1ccc(-c2ccc(C=NOC)cc2)cc1C` [Compound 30], with 1.94.
As for `CCN(C)C=Nc1ccc(-c2ccc(C(C)=NOC)cc2)cc1C` [Compound 31], the “log p (HCOOH)” value was determined as 2.02.
Still for that read-out and setting: then `CCN(C)C=Nc1ccc(-c2ccc(Cl)c(Cl)c2)cc1C` [Compound 32], with 2.21.
On to `CCN(C)C=Nc1ccc(-c2ccc(F)c(C)c2)cc1C` [Compound 33], for which the “log p (HCOOH)” value came to 2.04.
Same read-out and setting: with `CCN(C)C=Nc1ccc(-c2ccc(F)c(F)c2)cc1C` [Compound 34] the figure was 1.89; with `CCN(C)C=Nc1ccc(-c2ccc(Oc3ccccc3)cc2)cc1C` [Compound 35], 2.41.
Same read-out and setting: with `CCN(C)C=Nc1ccc(-c2ccc(OCc3ccccc3)cc2)cc1C` [Compound 36] the figure was 2.46; with `CCN(C)C=Nc1ccc(-c2ccc(COC)cc2)cc1C` [Compound 37], 1.59.
On the same count and under the same terms, then `CCN(C)C=Nc1ccc(-c2ccc(OC)c(OC)c2)cc1C` [Compound 38], with 1.49.
Regarding `CCN(C)C=Nc1cc(C)c(-c2cc(OC)c(OC)c(OC)c2)cc1C` [Compound 39], the “log p (HCOOH)” value turned out to be 1.68.
As to `CCN(C)C=Nc1cc(C)c(-c2ccc(C=NOC)cc2)cc1C` [Compound 40], the “log p (HCOOH)” value was 2.05.
The same measure, in the same setting: then `CCN(C)C=Nc1cc(C)c(-c2ccc(Cl)c(F)c2)cc1C` [Compound 41], with 2.32; and `CCN(C)C=Nc1cc(C)c(-c2ccc(C(C)=NOC)cc2)cc1C` [Compound 42], with 2.24; and `CCN(C)C=Nc1cc(C)c(-c2ccc(F)c(F)c2F)cc1C` [Compound 43], with 2.32.
The same measure, in the same setting: with `CCN(C)C=Nc1cc(C)c(-c2ccc(Cl)c(Cl)c2)cc1C` [Compound 44] the figure was 2.27; with `CCN(C)C=Nc1cc(C)c(-c2ccc(F)c(C)c2)cc1C` [Compound 45], 2.08; with `CCN(C)C=Nc1cc(C)c(-c2ccc(F)c(F)c2)cc1C` [Compound 46], 1.98.
Same read-out and setting: then `CCN(C)C=Nc1cc(C)c(-c2ccc(OCc3ccccc3)cc2)cc1C` [Compound 48], with 2.55; and `CCN(C)C=Nc1cc(C)c(-c2ccc(COC)cc2)cc1C` [Compound 49], with 1.76; and `CCc1cc(-c2cc(OC)c(OC)c(OC)c2)ccc1N=CN(C)CC` [Compound 50], with 1.69.
As to `CCc1cc(-c2ccc(C=NOC)cc2)ccc1N=CN(C)CC` [Compound 51], the “log p (HCOOH)” value was found to be 2.09.
Still for that read-out and setting: then `CCc1cc(-c2ccc(Cl)c(F)c2)ccc1N=CN(C)CC` [Compound 52], with 2.31; and `CCc1cc(-c2ccc(C(C)=NOC)cc2)ccc1N=CN(C)CC` [Compound 53], with 2.19.
Still for that read-out and setting: with `CCc1cc(-c2ccc(F)c(C)c2)ccc1N=CN(C)CC` [Compound 55] the figure was 1.98; with `CCc1cc(-c2ccc(F)c(F)c2)ccc1N=CN(C)CC` [Compound 56], 2.00.
Same read-out and setting: with `CCc1cc(-c2ccc(Cl)cc2Cl)ccc1N=CN(C)CC` [Compound 57] the figure was 2.26.
`CCc1cc(-c2ccc(OC)cc2)ccc1N=CN(C)CC` [Compound 58]: the “log p (HCOOH)” value is 1.90.
Same read-out and setting: then `CCc1cc(-c2ccc(Oc3ccccc3)cc2)ccc1N=CN(C)CC` [Compound 59], with 2.32; and `CCc1cc(-c2ccc(OCc3ccccc3)cc2)ccc1N=CN(C)CC` [Compound 60], with 2.39.
Same read-out and setting: with `CCc1cc(-c2ccc(COC)cc2)ccc1N=CN(C)CC` [Compound 61] the figure was 1.67.
Take `CCc1cc(-c2ccc(OC)c(OC)c2)ccc1N=CN(C)CC` [Compound 62]: the “log p (HCOOH)” value worked out at 1.68.
In the case of `CCN(C)C=Nc1ccc(-c2cc(OC)c(OC)c(OC)c2)cc1Cl` [Compound 63], the “log p (HCOOH)” value was 1.58.
For `CCN(C)C=Nc1ccc(-c2ccc(C=NOC)cc2)cc1Cl` [Compound 64], the “log p (HCOOH)” value was 1.87.
The same measure, in the same setting: with `CCN(C)C=Nc1ccc(-c2ccc(C(C)=NOC)cc2)cc1Cl` [Compound 65] the figure was 2.00; with `CCN(C)C=Nc1ccc(-c2ccc(Cl)c(Cl)c2)cc1Cl` [Compound 66], 2.25; with `CCN(C)C=Nc1ccc(-c2ccc(F)c(C)c2)cc1Cl` [Compound 67], 2.10.
The same measure, in the same setting: then `CCN(C)C=Nc1ccc(-c2ccc(F)c(F)c2)cc1Cl` [Compound 68], with 1.83; and `CCN(C)C=Nc1ccc(-c2ccc(Cl)cc2Cl)cc1Cl` [Compound 69], with 2.32; and `CCN(C)C=Nc1ccc(-c2ccc(OC)cc2)cc1Cl` [Compound 70], with 1.71.
Still for that read-out and setting: with `CCN(C)C=Nc1ccc(-c2ccc(Oc3ccccc3)cc2)cc1Cl` [Compound 71] the figure was 2.45.
As for `CCN(C)C=Nc1ccc(-c2ccc(OCc3ccccc3)cc2)cc1Cl` [Compound 72], the “log p (HCOOH)” value was determined as 2.48.
Regarding `CCN(C)C=Nc1ccc(-c2ccc(COC)cc2)cc1Cl` [Compound 73], the “log p (HCOOH)” value was determined as 1.65.
Turning to `CCN(C)C=Nc1ccc(-c2ccc(OC)c(OC)c2)cc1Cl` [Compound 74], the “log p (HCOOH)” value is given as 1.54.
The same measure, in the same setting: with `CCN(C)C=Nc1ccc(-c2cc(OC)c(OC)c(OC)c2)cc1C(F)(F)F` [Compound 75] the figure was 1.79.
Still for that read-out and setting: with `CCN(C)C=Nc1ccc(-c2ccc(C=NOC)cc2)cc1C(F)(F)F` [Compound 76] the figure was 2.01.
Turning to `CCN(C)C=Nc1ccc(-c2ccc(C(C)=NOC)cc2)cc1C(F)(F)F` [Compound 78], the “log p (HCOOH)” value was determined as 2.24.
Same read-out and setting: then `CCN(C)C=Nc1ccc(-c2ccc(F)c(F)c2F)cc1C(F)(F)F` [Compound 79], with 2.29; and `CCN(C)C=Nc1ccc(-c2ccc(Br)cc2)cc1C(F)(F)F` [Compound 80], with 2.24; and `CCN(C)C=Nc1ccc(-c2ccc(Cl)c(Cl)c2)cc1C(F)(F)F` [Compound 81], with 2.57.
`CCN(C)C=Nc1ccc(-c2ccc(F)c(C)c2)cc1C(F)(F)F` [Compound 82]: the “log p (HCOOH)” value came out at 2.20.
Same read-out and setting: then `CCN(C)C=Nc1ccc(-c2ccc(F)c(F)c2)cc1C(F)(F)F` [Compound 83], with 2.09; and `CCN(C)C=Nc1ccc(-c2ccc(F)c(F)c2)cc1F` [Compound 84], with 1.68.

The data set is the same for the next values; noted with them: reversed-phase HPLC column (C 18); HPLC reversed-phase C 18; 40° C.; 0.1% aqueous formic acid and acetonitrile, linear gradient 10% to 90% acetonitrile; read-out: log p (HCOOH).
`CCN(C)/C=N/c1cc(C)c(-c2ccc(C(C)(C)C)cc2)cc1C` [Compound 8, N′-(4′-tert-butyl-2,5-dimethylbiphenyl-4-yl)-N-ethyl-N-methylimidoformamide]: the chromatographic logP was found to be 2.67.

Staying with this data set, now noted: reversed-phase HPLC column (C 18); pH 2.3; HPLC, 0.1% aqueous formic acid and acetonitrile, 40° C.; read-out: log P (pH 2.3).
`CCN(C)/C=N/c1cc(C)c(-c2ccc(C(C)(C)C)cc2)cc1C` [Compound 8, N′-(4′-tert-butyl-2,5-dimethylbiphenyl-4-yl)-N-ethyl-N-methylimidoformamide]: the chromatographic logP was determined as 2.67.
